Source: US11612652B2, “Lipids as synthetic vectors to enhance antigen processing and presentation ex-vivo in dendritic cell therapy” (PDS Biotechnology Corporation, priority 2015, dated 2023)
“Also recorded” adds a separate entry of the source.

Key:
[1] = test system: BMDC / OT-1 CD8+ T cells; experiment: OT1 T cell proliferation (3H-thymidine uptake), cross-presentation of OVA by BMDC on MHC class I; assay type: cell-based, mouse; settings: for uptake and cross-presentation of OVA by BMDC, OT1 proliferation, CPM of 3H-thymidine uptake: whole OVA and various lipid concentrations, 30 min, three day culture
Protocol: In the second method, T cells from a TCR transgenic mice (OT-1) were used in which all T cells are specific for an internal peptide of OVA. These T cells will only proliferate if presented with DC which have processed OVA and presented an OVA peptide on MHC class I molecules.
Thus, this represents a stringent assay for cross presentation. BMDC were incubated with different concentrations of the whole OVA protein in the presence or absence of two cationic lipids, either DOTAP or DOTMA for 1 hr at 37° C. The DC were then washed, fixed and added to the OVA peptide specific T cells. […] This response was dose dependent with respect to the OVA concentration, and was even apparent when DC were incubated with OVA at 4° C.
To examine the effect of other cationic lipids and neutral lipids on antigen uptake and cross presentation, BMDC were incubated in the presence of the whole OVA protein and various concentrations of DOTAP DOTMA, DOPC, DOEPC or DDA for 30 min at 37° C. or 4° C. DC were then washed and added to OT1 splenocytes (TCR transgenic T cells specific for the class I restricted OVA peptide […] (SEQ ID NO: 2)) in microtiter plates and cultured for three days at 37° C. […] Control cultures contained OT1 splenocytes and […] (SEQ ID NO: 2) only which bypasses the need for antigen processing.

[2] = test system: BMDC (CD11c positive cells); experiment: DQ-OVA uptake and processing by BMDC, flow cytometry; assay type: cell-based, mouse; settings: for enhancement of DQ-OVA uptake and processing compared with known adjuvants (red fluorescence): one hour, 25 μM DOTAP nanoparticles, 10 μg/ml LPS or media alone
Protocol: In order to determine the effects of cationic lipids on antigen uptake and processing by dendritic cells ex-vivo, a fluorescent ovalbumin protein called DQ-OVA was used. DQ-OVA is non-fluorescent when intact, but emits both red and green fluorescence when the protein is degraded. BMDC were incubated at 37° C. or 4° C. for 1 hr with DQ-OVA alone, or DQ-OVA mixed with different concentrations of the cationic lipid DOTAP. The cells were then washed, fixed, and stained with fluorescent antibodies to CD11c, a marker for dendritic cells. Cells were then analyzed on an LSRII flow cytometer in both red and green fluorescent channels.
This represents the well-known mannose receptor mediated uptake of OVA by DC. […] Graphical representation of the fluorescent uptake of DQ-OVA into BMDC measured by flow cytometry.
This uptake and processing was inhibited at 4° C. confirming that active cytoskeletal rearrangements are required for this type of uptake. […] The effect of R-DOTAP was concentration dependent with 50 uM showing the greatest effect. To determine if the R-DOTAP enhancement of protein uptake is cell dependent, a mouse epithelial cell line was incubated with DQ-OVA under identical conditions as the BMDC. […] Further, they indicate that this enhancement is selective for dendritic cells and not other, non-antigen presenting cell types.
In order to determine whether lipid adjuvants could mediate the same effect as R-DOTAP, BMDC were incubated with DQ-OVA in media alone or with R-DOTAP as described for FIG. 1. In addition, BMDC were incubated under identical conditions with the potent lipid adjuvant lipopolysaccharide (LPS). Mouse bone marrow DC were incubated in the presence of fluorescent DQ-OVA for one hour at either 37° C. or 4° C./azide in the presence of 25 μM DOTAP nanoparticles, 10 μg/ml LPS or media alone, and analyzed by flow cytometry. […] Monophorphoryl lipid-A (MPL) is a lower toxicity derivative of LPS that is now an FDA approved adjuvant in several vaccines.

[3] = previous reported studies; cited from earlier work
[4] = test system: HPV16-specific CD8+ T-cells; experiment: IFN-gamma ELISPOT of splenocytes after vaccination with KF18 HPV peptide formulations; assay type: in vivo, C57 black mice; settings: vaccinated Day 0 and Day 7, sacrificed Day 14
Protocol: C57 black mice were vaccinated with various formulations: […]
Group 1: KF18 HPV peptide ([…]) (SEQ ID NO: 4)
Group 2: KF18 HPV peptide+R-DOTAP liposomes
Group 3: KF18 HPV peptide+S-DOTAP liposomes
Group 4: KF18 peptide+MPL/Alum adjuvant
5 mice per group were injected with the various formulations. The mice were vaccinated on Day 0 and Day 7 and sacrificed on Day 14. The splenocytes were removed and ELISPOT studies performed. The splenocytes were stimulated with the peptide […] (RF9) (SEQ ID NO: 5), the HPV16 CD8+ T-cell epitope peptide recognized by the C57 mice. […] An additional example of this effect is observed with the cationic lipid DDA. […] However, it has been reported that in order to induce strong antigen-specific T-cell responses that DDA is used in combination with strong adjuvants (Brandt L. et al, ESAT-6 Subunit Vaccination against Mycobacterium tuberculosis, Infect Immun. 2000 February; 68(2): 791-795).

[5] = test system: TC-1 tumors; experiment: Established TC-1 tumor model: tumor microenvironment, tumor volume, ELISPOT; assay type: in vivo, C57 mice
Protocol: C57 mice were divided into the following groups of 8 mice per group: R-DOTAP+HPV16 E7 peptide KF18 ([…]) (SEQ ID NO: 4) , GM-CSF+HPV16 E7 peptide KF18, R-DOTAP, GM-C SF, HPV16 E7 peptide KF18, untreated. 1×10^5 TC-1 tumor cells were injected into the flank of the mice on day 0. The various formulations were administered on Days 12 and 19 after tumor implantation. On day 19 4-5 mice per group were sacrificed and a number of evaluations performed to evaluate the immunology of the tumor microenvironment.
RF9 specific dextramer staining and flow cytometry were utilized to quantify the number of HPV-specific CD8+ T-cells that had infiltrated into the tumor micro-environment. The study quantified the number of CD8+ T cells specific to the mouse epitope RF9. These CD8+ T cells were measured as a percentage of all immune cells (CD45, CD3 and CD8) present in the tumor. Antigen specific T cells infiltrating into the tumor were measured using RF9 specific dextramers by flow cytometry. […] Data represents mean±SEM of 4-5 mice in each group.
On Day 19 flow cytometry was used to study the immuno-suppressive tumor microenvironment, specifically the regulatory T cell population. T regulatory cells (CD45+CD3+CD4+CD25+Foxp3+) cells infiltrated into tumors on day 14 and day 19.
Of critical importance to the clinical efficacy of any immunotherapy is the ratio of immune suppressive cells to tumor targeting CD8+ T cells within the tumor microenvironment. A lower ratio of immune suppressor cells to CD8+ T cells promotes improved prognosis for anti-tumor benefit. […] Cationic lipids appear to promote the preferential expansion of the right phenotype of effector T-cells in preference to Tregs.
The various formulations were evaluated for their impact on the established TC-1 tumors in the same study. […] Tumor volumes were measured using calipers. The naïve mice group are tumor bearing mice that remained untreated. The HPV16 E7 peptide used in the vaccine is KF18. […]
In this study, IFN-γ ELISPOT studies were also performed to quantify and understand the “quality” of tumor-specific T-cell generated. […]

[6] = test system: serum cytokines and chemokines; experiment: Systemic cytokines in serum after vaccination, Luminex Mouse cytokine 20-plex panel; assay type: in vivo, Human HLA-A2 mice
Protocol: This study therefore focused on an evaluation of the systemic presence of cytokines after subcutaneous administration of cationic lipid vaccines. Human HLA-A2 mice that could recognize human HPV antigens were administered high and low doses of R-DOTAP+antigen.
Group 1: • Vaccinate mice with 100 μL of a 1:1 mixture of high dose R-DOTAP (3.4 mg/mL) and sucrose solution.
Group 2: • Vaccinate with 50 μg LPS as a positive control for cytokine induction
Group 3: • Vaccinate mice with 100 μL of high dose R-DOTAP+HPV antigens (1:1 Mixture of RDOTAP 3.4 mg/mL, and HPVMix 0.14 mg/mL)
Group 4: • Vaccinate mice with 100 μL of low dose R-DOTAP+HPV antigens (1:1 Mixture of RDOTAP 0.34 mg/mL, and HPVMix 0.14 mg/mL)
After a single vaccination all mice were bled as follows:
Approximately 200 μL of blood was withdrawn from each mouse at the above specified time points.
The cytokine analysis was performed by Luminex Assay following the manufacturer's instructions.
As a positive control, the mice were also vaccinated with the well-studied toll-like-receptor (TLR) agonist lipopolysaccharide (LPS).
Study Results:Mouse serum was analyzed using a Luminex Mouse cytokine 20-plex panel (cytokines listed below). Cytokine intensity levels were quantitated by comparing to a cytokine standard run in the same plate using Luminex software. […]

## CCCCCCCC/C=C\CCCCCCCC(=O)OCC(C[N+](C)(C)C)OC(=O)CCCCCCC/C=C\CCCCCCCC (stereo not drawn) [DOTAP, 1,2-dioleoyl-3-trimethylammonium propane]
[1]; BMDC with whole OVA, 1 hr at 37° C., washed, fixed
  cross presentation of OVA to CD8+ T cells, CPM of 3H-thymidine uptake: cross presented antigen to the CD8+ T cells much more strongly than DC incubated with OVA without cationic lipid
[1]
  uptake and cross-presentation of OVA by BMDC, OT1 proliferation, CPM of 3H-thymidine uptake: facilitated enhanced uptake and cross-presentation of OVA by BMDC; also recorded: showed some enhancement
[2]; 37° C., 1 hr, versus DQ-OVA alone
  DQ-OVA uptake and processing, mean green fluorescence of CD11c positive cells: enhances antigen uptake and processing by DC

## CCCCCCCCCCCCCCCCCC[N+](C)(C)CCCCCCCCCCCCCCCCCC [DDA]
[1]
  observation on dilution with OVA: formed a precipitate when diluted with OVA
  uptake and cross-presentation of OVA by BMDC, OT1 proliferation, CPM of 3H-thymidine uptake: facilitated enhanced uptake and cross-presentation of OVA by BMDC; also recorded: showed strong enhancement of antigen presentation; also recorded: facilitate antigen uptake and presentation
[3]
  in vivo antigen-specific immune responses: neither S-DOTAP nor DDA induced effective in vivo antigen-specific immune responses

## CCCCCCCC/C=C\CCCCCCCC(=O)OCC(C[N+](C)(C)C)OC(=O)CCCCCCC/C=C\CCCCCCCC (stereo not drawn) [S-DOTAP, 1,2-dioleoyl-3-trimethylammonium propane]
[1]
  uptake and cross-presentation of OVA by BMDC, OT1 proliferation, CPM of 3H-thymidine uptake: also facilitated uptake and presentation; also recorded: identical ability to promote antigen uptake, internalization and processing, as well as maturation of dendritic cells
[4]
  HPV-specific CD8+ T-cell response (ELISPOT, RF9 stimulation): did not result in an enhanced CD8+ T-cell response beyond what was seen with the peptide alone
[3]
  in vivo antigen-specific immune responses: neither S-DOTAP nor DDA induced effective in vivo antigen-specific immune responses

## GQAEPDRAHYNIVTF [antigen only]
[5]; Day 26, calipers
  tumor volume: about 200 mm^3
[5]; formulations on Days 12 and 19, read Day 26
  effect on established TC-1 tumors: did not induce any tumor regression but inhibited tumor growth

## lipopolysaccharide [LPS]
[6]; after vaccination
  time to systemic spike in cytokine levels: ≤ 12 h
[6]; single vaccination, pre bleed, 12, 24, 48 hours
  systemic induction of cytokines and chemokines in serum: increases in the systemic levels of IL-12, IP-10, KC, MCP-1 & MIG
[2]
  enhancement of DQ-OVA uptake and processing compared with known adjuvants (red fluorescence): no such enhancement was observed

## CCCCCCCC/C=C\CCCCCCCC(=O)OC[C@@H](COP(=O)(OCC)OCC[N+](C)(C)C)OC(=O)CCCCCCC/C=C\CCCCCCCC (stereo partly drawn) [DOEPC, 1,2-dioleoyl-sn-glycero-3-ethylphosphocholine]
[1]
  uptake and cross-presentation of OVA by BMDC, OT1 proliferation, CPM of 3H-thymidine uptake: facilitated enhanced uptake and cross-presentation of OVA by BMDC; also recorded: showed strong enhancement of antigen presentation

## CCCCCCCC/C=C\CCCCCCCC(=O)OC[C@H](COP(=O)([O-])OCC[N+](C)(C)C)OC(=O)CCCCCCC/C=C\CCCCCCCC [DOPC, reference compound]
[1]
  uptake and cross-presentation of OVA by BMDC, OT1 proliferation, CPM of 3H-thymidine uptake: also facilitated uptake and presentation; also recorded: showed some enhancement

## Monophorphoryl lipid-A [MPL, reference compound]
[4]
  HPV-specific CD8+ T-cell response (ELISPOT, RF9 stimulation): significantly lower CD8+ T-cell response compared to R-DOTAP
[2]
  enhancement of DQ-OVA uptake and processing compared with known adjuvants (red fluorescence): showed no ability to facilitate protein uptake in BMDC; also recorded: ineffective in promoting antigen uptake compared to both R-DOTAP and S-DOTAP
